According to paper PMC9381674 (Cardiology and Therapy, 2022):
Like-named read-outs stand apart in the source and are kept apart here.

Columns and labels:
[1] = compared to intravenous administration; extensive first-pass effect; cited from earlier work
P-gp = details: inhibitor for P-gp; cited from earlier work
CYP3A4/5 [2] = details: strong index inhibitor of CYP3A4/5; cited from earlier work
[3] = assay type: in vivo, human
Safety assessments = assay type: in vivo, human; details: single dose of milvexian alone and in combination with itraconazole or diltiazem
P-glycoprotein (P-gp) = details: preclinical results; ref unpublished data; cited from earlier work
[4] = system: arterial and venous thrombosis; details: preclinical models of arterial and venous thrombosis; cited from earlier work
CYP3A4/5 [5] = details: preclinical results; ref unpublished data; cited from earlier work
[6] = co-administration of itraconazole

COc1ccc([C@@H]2Sc3ccccc3N(CCN(C)C)C(=O)[C@@H]2OC(C)=O)cc1 [Diltiazem]
absolute oral bioavailability [1]: about 40%

CCC(C)n1ncn(-c2ccc(N3CCN(c4ccc(OCC5COC(Cn6cncn6)(c6ccc(Cl)cc6Cl)O5)cc4)CC3)cc2)c1=O (stereo not shown) [Itraconazole]
increase in the AUC of digoxin (P-gp): > 1.25 fold | increase in the AUC of sensitive substrates (CYP3A4/5 [2]): ≥ 10 fold

C[C@@H]1CCC[C@H](n2cnc(-c3cc(Cl)ccc3-n3cc(Cl)nn3)cc2=O)c2cc(ccn2)-c2c(cnn2C(F)F)NC1=O [Milvexian]
AUC(0–T) higher compared with milvexian alone ([3]; co-administration of diltiazem): 38% | AUC(INF) higher compared with milvexian alone ([3]; co-administration of diltiazem): 38% | C24 higher compared with milvexian alone ([3]; co-administration of diltiazem): 64% | mean Cmax higher compared with milvexian alone ([3]; co-administration of diltiazem): 9.6% | mean T1/2 longer compared with milvexian alone ([3]; co-administration of diltiazem): ~1.1 fold | AUC(0–T) higher compared with milvexian alone [3, 6]: 2.5 fold | AUC(INF) higher compared with milvexian alone [3, 6]: 2.5 fold | C24 higher compared with milvexian alone [3, 6]: 3.8 fold | mean T1/2 longer compared with milvexian alone [3, 6]: approximately 1.5 fold | effect of co-administration on median Tmax of milvexian ([3]; co-administration of itraconazole or diltiazem): not altered | impact of a moderate CYP3A inhibitor on milvexian exposure ([3]; diltiazem co-administration): less than 2.5 fold | impact of a strong CYP3A inhibitor on milvexian exposure ([3]; itraconazole co-administration): < 5 fold | deaths or serious AEs during the study (Safety assessments): no deaths or serious AEs | substrate for P-glycoprotein (P-glycoprotein (P-gp)): substrate for P-glycoprotein | antithrombotic activity [4]: demonstrated antithrombotic activity while preserving homeostasis | substrate of CYP3A4/5 (CYP3A4/5 [5]): substrate of CYP3A4/5
